From ChEMBL document CHEMBL5252593, “Therapeutic significance of molecular hybrids for breast cancer research and treatment” (RSC Med Chem, 2023)

Columns and labels:
[1] = molecular target: T1, Prostaglandin G/H synthase 2 (Homo sapiens) (UniProt P35354); experiment: Inhibition of COX-2 (unknown origin) at 50 uM by fluorescence based method relative to control
T1 sequence (whole entry): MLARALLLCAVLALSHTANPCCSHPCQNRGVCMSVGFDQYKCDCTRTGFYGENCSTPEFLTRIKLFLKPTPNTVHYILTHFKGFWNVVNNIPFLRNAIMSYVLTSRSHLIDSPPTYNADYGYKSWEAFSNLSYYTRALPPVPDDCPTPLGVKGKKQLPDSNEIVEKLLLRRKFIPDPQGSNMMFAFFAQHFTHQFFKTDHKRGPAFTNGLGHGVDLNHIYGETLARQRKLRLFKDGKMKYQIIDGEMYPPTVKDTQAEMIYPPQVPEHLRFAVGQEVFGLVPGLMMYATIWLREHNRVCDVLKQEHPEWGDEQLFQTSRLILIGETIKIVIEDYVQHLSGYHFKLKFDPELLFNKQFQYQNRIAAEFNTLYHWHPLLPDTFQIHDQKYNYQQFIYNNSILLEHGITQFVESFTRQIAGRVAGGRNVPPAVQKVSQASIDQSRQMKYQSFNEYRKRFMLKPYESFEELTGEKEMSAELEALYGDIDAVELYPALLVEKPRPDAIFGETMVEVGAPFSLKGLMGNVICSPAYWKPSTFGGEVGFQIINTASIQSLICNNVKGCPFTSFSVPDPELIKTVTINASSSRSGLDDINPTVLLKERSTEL

MDA-MB-231 [2] = experiment: Antiproliferative activity against human MDA-MB-231 cells assessed as inhibition of cell growth incubated for 72 hrs by Celltiter Glo assay; assay type: functional, cell-based; conditions: MDA-MB-231, 72 h
MCF7 [3] = experiment: Antiproliferative activity against human MCF7 cells assessed as reduction in cell proliferation incubated for 48 hrs by MTT assay; assay type: functional, cell-based; conditions: MCF7, 48 h
MCF-10A = experiment: Antiproliferative activity against human MCF-10A cells assessed as reduction in cell proliferation incubated for 48 hrs by MTT assay; assay type: functional, cell-based
[4] = Selectivity index, ratio of IC50 for antiproliferative activity against human MCF-10A cells to IC50 for antiproliferative activity against human MCF7 cells by MTT assay; assay type: toxicity, cell-based; conditions: MCF-10A cells versus MCF7 cells, read-out: Selectivity Index
MDA-MB-231 [5] = experiment: Antiproliferative activity against human MDA-MB-231 cells assessed as reduction in cell proliferation incubated for 48 hrs by MTT assay; assay type: functional, cell-based; conditions: MDA-MB-231, 48 h
MCF7 [6] = experiment: Antiproliferative activity against Doxorubicin-resistant human MCF7 cells assessed as reduction in cell proliferation incubated for 48 hrs by MTT assay; assay type: functional, cell-based; conditions: MCF7, 48 h
MCF7 [7] = experiment: Antiproliferative activity against human MCF7 cells assessed as reduction in cell viability measured after 24 hrs by MTT assay; assay type: functional, cell-based; conditions: MCF7, 24 h
MCF7 [8] = experiment: Antiproliferative activity against human MCF7 cells assessed as cell growth inhibition measured after 24 hrs by MTT assay; assay type: functional, cell-based; conditions: MCF7, 24 h
HEK293 [9] = experiment: Antiproliferative activity against human HEK293 cells assessed as inhibition of cell proliferation measured after 24 hrs by MTT assay; assay type: functional, cell-based; conditions: HEK293, 24 h
MCF7 [10] = experiment: Antiproliferative activity against human MCF7 cells assessed as reduction in cell viability; assay type: functional, cell-based
MDA-MB-231 [11] = experiment: Antiproliferative activity against human MDA-MB-231 cells assessed as reduction in cell viability measured after 24 hrs by MTT assay; assay type: functional, cell-based; conditions: MDA-MB-231, 24 h
T47D = experiment: Antiproliferative activity against human T47D cells assessed as reduction in cell viability measured after 48 hrs by MTT assay; assay type: functional, cell-based
MCF7 [12] = experiment: Antiproliferative activity against human MCF7 cells assessed as reduction in cell viability measured after 48 hrs by MTT assay; assay type: functional, cell-based; conditions: MCF7, 48 h
MDA-MB-361 = experiment: Antiproliferative activity against human MDA-MB-361 cells assessed as reduction in cell viability measured after 48 hrs by MTT assay; assay type: functional, cell-based; conditions: MDA-MB-361, 48 h
MDA-MB-231 [13] = experiment: Antiproliferative activity against human MDA-MB-231 cells assessed as reduction in cell viability measured after 48 hrs by MTT assay; assay type: functional, cell-based; conditions: MDA-MB-231, 48 h
C-33-A = experiment: Antiproliferative activity against human C-33-A cells assessed as reduction in cell viability measured after 48 hrs by MTT assay; assay type: functional, cell-based
MCF7 [14] = experiment: Antiproliferative activity against human MCF7 cells assessed as inhibition of cell proliferation incubated for 24 hrs by MTT assay; assay type: functional, cell-based; conditions: MCF7, 24 h
HEK293 [15] = experiment: Antiproliferative activity against human HEK293 cells assessed as inhibition of cell growth measured after 24 hrs by MTT assay; assay type: functional, cell-based; conditions: HEK293, 24 h
MDA-MB-231 [16] = experiment: Antiproliferative activity against human MDA-MB-231 cells assessed as inhibition of cell growth by MTT assay; assay type: functional, cell-based
MDA-MB-231 [17] = experiment: Antiproliferative activity against human MDA-MB-231 cells assessed as inhibition of cell proliferation incubated for 24 hrs by MTT assay; assay type: functional, cell-based; conditions: MDA-MB-231, 24 h

Compound: OC[C@H]1O[C@@H](Cc2cc(-c3c[nH]c4ccccc34)on2)[C@H](O)[C@@H](O)[C@@H]1O
- inhibition [1]: 95%
- IC50 (MDA-MB-231 [2]): 35.5 µM

Compound: CCO/N=C1/C(=O)N(CCCOC2O[C@@H]3O[C@@]4(C)CC[C@H]5[C@H](C)CC[C@@H]([C@H]2C)[C@@]35OO4)c2ccc(F)cc21 (stereo partly drawn)
- IC50 (MCF7 [3]): 20.7 µM
- IC50 (MCF-10A): > 100 µM
- selectivity ratio [4]: > 1.3
- IC50 (MDA-MB-231 [5]): 23.9 µM
- IC50 (MCF7 [6]): 21.7 µM

Compound: COc1cccc(OC)c1C1CC(c2ccc(OCc3cn(CCCN4C(=O)c5cccc6cccc(c56)C4=O)nn3)cc2)=NN1C(C)=O (stereo not drawn)
- IC50 (MCF7 [7]): 62.2 µM
- IC50 (MCF7 [8]): 62.2 µM
- IC50 (HEK293 [9]): > 100 µM

Compound: CCOC(=O)[C@H]1Cc2c([nH]c3ccccc23)CN1Cc1cn(CCCOc2ccc(C(=O)/C=C/c3ccc(F)cc3)cc2)nn1
- IC50 (MCF7 [10]): 10.3 µM

Compound: CCOC(=O)[C@H]1Cc2c([nH]c3ccccc23)CN1Cc1cn(CCCCCOc2ccc(C(=O)/C=C/c3cc(OC)c(OC)c(OC)c3)cc2)nn1
- IC50 (MDA-MB-231 [11]): 22 µM
- IC50 (MDA-MB-231 [2]): 22.3 µM

Compound: C[C@H]1[C@@H](CC(=O)OC[C@H]2C[C@H]3[C@@H]4CCc5cc(OCc6ccccc6)ccc5[C@H]4CC[C@]3(C)[C@H]2O)OC2O[C@]3(C)CC[C@H]4[C@H](C)CC[C@@H]1[C@@]24OO3 (stereo partly drawn)
- EC50 (T47D): 0.93 µM
- EC50 (MCF7 [12]): 0.45 µM
- EC50 (MDA-MB-361): 0.18 µM
- EC50 (MDA-MB-231 [13]): 0.86 µM
- EC50 (C-33-A): 0.15 µM

Compound: COc1ccc2c3c([nH]c2c1)[C@]12CC(C)(C)[C@@]4(C(=O)N1CC3)c1[nH]c3cc(OC)ccc3c1CCN24
- IC50 (MCF7 [14]): 38.5 µM

Compound: Cc1ncc([N+](=O)[O-])n1Cc1cn(CCCCN2C(=O)C(=O)c3cc(Cl)ccc32)nn1
- IC50 (HEK293 [15]): 12.1 µM

Compound: O=C1C(=O)N(CCn2cc(COCCOc3ccc(/C(=C(/CCCl)c4ccccc4)c4ccccc4)cc3)nn2)c2c(Br)cc(Br)cc21
- IC50 (MDA-MB-231 [16]): 48.5 µM

Compound: CCOC(=O)[C@H]1Cc2c([nH]c3ccccc23)CN1Cc1cn(CCCN2C(=O)C(=O)c3ccccc32)nn1
- IC50 (MCF7 [14]): 37.4 µM
- IC50 (MDA-MB-231 [17]): > 100 µM
